# Data published in ChEMBL document CHEMBL3217639, “Property based optimisation of glucokinase activators discovery of the phase IIb clinical candidate AZD1656” (Medchemcomm, 2012).
# Key:
# [1] = biological target: T1, Hexokinase-4 (Homo sapiens, UniProt P35557); experiment: […] of recombinant human pancreatic glucokinase by G-6-P dehydrogenase assay
# T1 sequence (P35557 whole entry): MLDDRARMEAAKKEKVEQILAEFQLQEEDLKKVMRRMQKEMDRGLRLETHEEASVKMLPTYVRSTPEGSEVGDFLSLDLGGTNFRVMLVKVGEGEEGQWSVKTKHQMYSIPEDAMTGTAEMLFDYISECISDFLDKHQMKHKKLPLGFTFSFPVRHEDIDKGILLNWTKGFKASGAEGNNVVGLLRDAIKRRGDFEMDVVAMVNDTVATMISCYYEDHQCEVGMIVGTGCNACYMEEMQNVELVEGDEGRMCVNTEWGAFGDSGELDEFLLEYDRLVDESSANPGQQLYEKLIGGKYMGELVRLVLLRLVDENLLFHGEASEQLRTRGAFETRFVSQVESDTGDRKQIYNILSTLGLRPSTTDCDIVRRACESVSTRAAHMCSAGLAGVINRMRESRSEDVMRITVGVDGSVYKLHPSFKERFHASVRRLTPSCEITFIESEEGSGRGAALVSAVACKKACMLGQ
# [2] = Apparent permeability from apical to basolateral side in MDCK cells expressing human MDR1; type: ADME, cell-based, Canis lupus familiaris; settings: dog
# [3] = Lipophilicity, log D of the compound; type: physicochemical; settings: octanol/water
# [4] = biological target: Voltage-gated inwardly rectifying potassium channel KCNH2 (Homo sapiens, UniProt Q12809)
# Chain of Voltage-gated inwardly rectifying potassium channel KCNH2 (Q12809 whole entry): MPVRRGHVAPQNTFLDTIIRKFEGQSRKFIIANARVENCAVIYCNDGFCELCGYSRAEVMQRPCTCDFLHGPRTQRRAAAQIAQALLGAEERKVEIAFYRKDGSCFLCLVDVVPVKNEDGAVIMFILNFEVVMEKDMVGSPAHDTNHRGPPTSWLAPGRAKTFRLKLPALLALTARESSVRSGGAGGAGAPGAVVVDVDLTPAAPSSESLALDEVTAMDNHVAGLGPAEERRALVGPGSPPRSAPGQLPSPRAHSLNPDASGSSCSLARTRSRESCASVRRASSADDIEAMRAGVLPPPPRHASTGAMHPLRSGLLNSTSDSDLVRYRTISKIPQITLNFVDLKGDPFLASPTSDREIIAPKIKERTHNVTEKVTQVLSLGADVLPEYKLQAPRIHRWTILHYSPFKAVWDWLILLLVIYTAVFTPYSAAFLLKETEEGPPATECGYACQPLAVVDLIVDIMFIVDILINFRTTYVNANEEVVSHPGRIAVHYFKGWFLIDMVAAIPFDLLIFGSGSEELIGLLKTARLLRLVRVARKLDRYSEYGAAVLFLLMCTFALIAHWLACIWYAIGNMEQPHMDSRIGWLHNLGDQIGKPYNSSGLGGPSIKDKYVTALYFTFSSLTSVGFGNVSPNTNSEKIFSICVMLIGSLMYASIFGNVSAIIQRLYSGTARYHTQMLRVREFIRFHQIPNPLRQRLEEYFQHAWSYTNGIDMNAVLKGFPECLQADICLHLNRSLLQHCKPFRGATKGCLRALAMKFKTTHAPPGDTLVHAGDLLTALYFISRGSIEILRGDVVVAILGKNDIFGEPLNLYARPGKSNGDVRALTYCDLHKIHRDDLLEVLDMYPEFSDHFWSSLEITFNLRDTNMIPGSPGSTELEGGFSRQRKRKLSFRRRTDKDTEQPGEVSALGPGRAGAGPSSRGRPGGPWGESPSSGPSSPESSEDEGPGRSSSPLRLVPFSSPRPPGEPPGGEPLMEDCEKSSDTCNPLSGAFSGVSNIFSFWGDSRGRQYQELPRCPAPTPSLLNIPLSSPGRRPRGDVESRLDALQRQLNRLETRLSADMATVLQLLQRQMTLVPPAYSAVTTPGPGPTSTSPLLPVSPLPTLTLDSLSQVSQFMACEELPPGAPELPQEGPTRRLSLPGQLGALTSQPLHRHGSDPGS
# [5] = Crystalline solubility of the compound; type: physicochemical
# [6] = test system: Salmonella typhimurium; experiment: Genotoxicity in Salmonella typhimurium by Ames test; type: toxicity, organism-based; settings: salmonella enterica subsp. enterica serovar typhimurium
# [7] = test system: Rattus norvegicus; experiment: Antidiabetic activity in high fat fed Zucker rat assessed as reduction of AUC of plasma glucose level at 3 mg/kg by oral glucose tolerance test; type: functional; design: scale not given: the % may be the effect or the level left
# [8] = species on record: Rattus norvegicus; experiment: Unbound clearance in rat; type: ADME, organism-based; settings: in vivo
# [9] = species on record: Canis familiaris; experiment: Unbound clearance in dog; type: ADME, organism-based, Canis lupus familiaris; settings: in vivo
# [10] = Clearance in rat; type: ADME, organism-based; settings: in vivo
# [11] = Volume of distribution at steady state in rat; type: ADME, organism-based; settings: in vivo, read-out: Vdss
# [12] = Volume of distribution at steady state in dog; type: ADME, organism-based, Canis lupus familiaris; settings: in vivo, read-out: Vdss
# [13] = Clearance in dog; type: ADME, organism-based, Canis lupus familiaris; settings: in vivo
# [14] = test system: Rattus norvegicus; experiment: Antidiabetic activity in high fat fed Zucker rat assessed as reduction of AUC of plasma glucose level at 1 mg/kg by oral glucose tolerance test; type: functional; design: scale not given: the % may be the effect or the level left
# [15] = Oral bioavailability in dog; type: ADME, organism-based, Canis lupus familiaris; settings: in vivo
# [16] = Oral bioavailability in rat; type: ADME, organism-based; settings: in vivo
EC50 [1] [nM],Papp A→B [2] [×10⁻⁶ cm/s],logD [3],solubility thermodynamic [5] [µM],SMILES,IC50 [4] [nM],further results
35,5.2,2.7,17,Cc1nsc(NC(=O)c2cc(Oc3ccc(C(=O)N4CCC4)cc3)cc(O[C@@H](C)CO)c2)n1,11000,
37,12,2.5,490,COC[C@H](C)Oc1cc(Oc2ccc(C(=O)N3CCC3)cc2)cc(C(=O)Nc2ccn(C)n2)c1,,
60,,2.8,8,COC[C@H](C)Oc1cc(Oc2ncc(C(=O)N3CCC3)cc2Cl)cc(C(=O)Nc2cnc(C)cn2)c1,,
,,,,Nc1nccs1 [AMINOTHIAZOLE],,Activity [6]: Non-toxic
,,,,Cc1cnc(N)cn1,,Activity [6]: Non-toxic
,,,,Cn1ccc(N)n1,,Activity [6]: Toxic
,,,,Cc1nsc(N)n1,,Activity [6]: Non-toxic
370,,,,COC[C@H](C)Oc1cc(Oc2ccc(C(=O)N3CCC3)cn2)cc(C(=O)Nc2cnc(C)cn2)c1,,
,,,,Nc1cc[nH]n1,,Activity [6]: Non-toxic
,,,,CCn1ccc(N)n1,,Activity [6]: Toxic
73,,2.8,44,CC(C)n1ccc(NC(=O)c2cc(Oc3ccc(C(=O)N4CCC4)cc3)cc(O[C@@H](C)CO)c2)n1,31000,
,,,,CC(C)n1ccc(N)n1,,Activity [6]: Toxic
53,0.8,2,670,C[C@@H](CO)Oc1cc(Oc2ccc(C(=O)N3CCC3)cc2)cc(C(=O)Nc2cc[nH]n2)c1,> 100000,
70,6.4,2.2,180,Cn1ccc(NC(=O)c2cc(Oc3ccc(C(=O)N4CCC4)cc3)cc(O[C@H]3CCOC3)c2)n1,,
31,1.6,2.4,280,CCn1ccc(NC(=O)c2cc(Oc3ccc(C(=O)N4CCC4)cc3)cc(O[C@@H](C)CO)c2)n1,,
73,29,2.9,30,COC[C@H](C)Oc1cc(Oc2ccc(C(=O)N3CCC3)cc2)cc(C(=O)Nc2cnc(C)cn2)c1,,
110,,3.3,125,CC(C)Oc1cc(Oc2ccc(C(=O)N3CCC3)cc2)cc(C(=O)Nc2ccn(C)n2)c1,27000,
47,7,2.6,11,Cn1ccc(NC(=O)c2cc(Oc3ccc(C(=O)N4CCC4)cc3)cc(OC(CF)CF)c2)n1,,
170,,,170,Cn1ccc(NC(=O)c2cc(Oc3ccc(C(=O)N4CCC4)cc3)cc(OC3CCOCC3)c2)n1,,
36,18,2.9,21,COC[C@H](C)Oc1cc(Oc2ccc(C(=O)N3CCC3)nc2)cc(C(=O)Nc2cnc(C)cn2)c1,40000,
32,,3.1,9,C[C@@H](CO)Oc1cc(Oc2ccc(C(=O)N3CCC3)cc2)cc(C(=O)Nc2nccs2)c1,9000,
,1.2,,350,C[C@@H](CO)Oc1cc(Oc2ccc(C(=O)N3CCC3)cc2)cc(C(=O)Nc2ccn(C)n2)c1,,Activity [7]: 24%; CL free [8]: 480 mL/min/kg; CL free [9]: 61 mL/min/kg
61,4.1,2.4,17,Cc1cnc(NC(=O)c2cc(Oc3ccc(C(=O)N4CCC4)cc3)cc(O[C@@H](C)CO)c2)cn1,38000,
61,35,2.4,280,COC[C@H](C)Oc1cc(Oc2cnc(C(=O)N3CCC3)cn2)cc(C(=O)Nc2cnc(C)cn2)c1 [AZD-1656],> 100000,clearance [10]: 16 mL/min/kg; Vd [11]: 0.5 L/kg; Vd [12]: 1.5 L/kg; clearance [13]: 8.1 mL/min/kg; Activity [14]: 43%; bioavailability [15]: 100%; CL free [8]: 310 mL/min/kg; bioavailability [16]: 100%; CL free [9]: 50 mL/min/kg
